Assay results taken from patent publication US20230172930A1, “USE OF COMPLEMENT FACTOR D INHIBITORS ALONE OR IN COMBINATION WITH ANTI-C5 ANTIBODIES FOR TREATMENT OF PAROXYSMAL NOCTURNAL HEMOGLOBINURIA” (Alexion Pharmaceuticals, Inc., priority 2020, published 2023).

System: PNH patients with an inadequate response to eculizumab
Assay: Phase 2 open-label study of danicopan added to eculizumab: laboratory markers of PNH (Hgb, LDH, reticulocytes, bilirubin)
Assay type: in vivo, human
Conditions: for Direct bilirubin, mean / LDH, mean / Reticulocytes, mean / Total bilirubin, mean: all patients N=11
Description: All doses were taken approximately 15-30 minutes after completion of a meal or snack. Dose escalations, to a maximum of 200 mg three times a day, were based on safety and hemoglobin values and permitted at 4-week intervals through week 12 at 50 mg increments. If the patient had not already reached the 200 mg three times daily maximal dose by week 12, escalation was permitted if clinically indicated. […] Patients completing treatment with clinical benefit entered a long-term extension phase.
Descriptive statistics are provided for biochemical, quality-of-life measurements, and transfusion data. Continuous variables are summarized with mean, median, minimum and maximum values. Categorical variables, e.g., transfusion-independent, are summarized with counts and percentages. Missing values were not imputed.

[1] = Patient A, Baseline, before danicopan, on eculizumab 900 mg q14d
[2] = Patient A, Week 12, danicopan 150 mg TID + eculizumab 900 mg q14d
[3] = Patient A, Week 24, danicopan 150 mg TID + eculizumab 900 mg q14d
[4] = Patient B, Baseline, before danicopan, on eculizumab 1200 mg q14d
[5] = Patient B, Week 12, danicopan 100 mg TID + eculizumab 900 mg q14d
[6] = Patient B, Week 24, danicopan 100 mg TID + eculizumab 900 mg q14d
[7] = Patient C, Baseline, before danicopan, on eculizumab 900 mg q14d
[8] = Patient C, Week 12, danicopan 150 mg TID + eculizumab 900 mg q14d
[9] = Patient C, Week 24, danicopan 150 mg TID + eculizumab 900 mg q14d
[10] = Patient D, Baseline, before danicopan, on eculizumab 900 mg q14d
[11] = Patient D, Week 12, danicopan 150 mg TID + eculizumab 900 mg q14d
[12] = Patient D, Week 24, danicopan 150 mg TID + eculizumab 900 mg q14d
[13] = Patient E, Baseline, before danicopan, on eculizumab 1200 mg q14d
[14] = Patient E, Week 12, danicopan 150 mg TID + eculizumab 1200 mg q14d
[15] = Patient E, Week 24, danicopan 150 mg TID + eculizumab 1200 mg q14d
[16] = Patient F, Baseline, before danicopan, on eculizumab 900 mg q14d
[17] = Patient F, Week 12, danicopan 150 mg TID + eculizumab 900 mg q14d
[18] = Patient F, Week 24, danicopan 150 mg TID + eculizumab 900 mg q14d
[19] = Patient G, Baseline, before danicopan, on eculizumab 1500 mg q14d
[20] = Patient G, Week 12, danicopan 100 mg TID + eculizumab 1500 mg q14d
[21] = Patient G, Week 24, danicopan 100 mg TID + eculizumab 1500 mg q14d
[22] = Patient H, Baseline, before danicopan, on eculizumab 900 mg q14d
[23] = Patient H, Week 12, danicopan 200 mg TID + eculizumab 900 mg q14d
[24] = Patient H, Week 24, danicopan 200 mg TID + eculizumab 900 mg q14d
[25] = Patient I, Baseline, before danicopan, on eculizumab 900 mg q14d
[26] = Patient I, Week 12, danicopan 100 mg TID + eculizumab 900 mg q14d
[27] = Patient I, Week 24, danicopan 200 mg TID + eculizumab 900 mg q14d
[28] = Patient J, Baseline, before danicopan, on eculizumab 1200 mg q14d
[29] = Patient J, Week 12, danicopan 100 mg TID + eculizumab 1200 mg q14d
[30] = Patient J, Week 24, danicopan 200 mg TID + eculizumab 1200 mg q14d
[31] = Patient K, Baseline, before danicopan, on eculizumab 900 mg q14d
[32] = Patient K, Week 12, danicopan 100 mg TID + eculizumab 900 mg q14d
[33] = Patient K, Week 24, danicopan 150 mg TID + eculizumab 900 mg q14d
[34] = Baseline, before danicopan, on eculizumab
[35] = Week 24, danicopan 100-200 mg TID + eculizumab

`CC(=O)c1nn(CC(=O)N2C[C@H](F)C[C@H]2C(=O)Nc2cccc(Br)n2)c2ccc(-c3cnc(C)nc3)cc12` [Danicopan, danicopan] showed a Direct bilirubin [1] of 0.44 mg/dL, a Hgb [1] of 5.00 g/dL and an LDH [1] of 1.7 ×ULN. The Reticulocytes [1] was 159 10^9/μL, the Total bilirubin [1] was 2.14 mg/dL and the Direct bilirubin [2] was 0.33 mg/dL. The Hgb [2] was 7.70 g/dL, the LDH [2] was 1.2 ×ULN and the Reticulocytes [2] was 121 10^9/μL. The Total bilirubin [2] was 1.80 mg/dL, the Direct bilirubin [3] was 0.48 mg/dL and the Hgb [3] was 8.50 g/dL. For the same compound, the LDH [3] was 1.1 ×ULN, the Reticulocytes [3] was 112 10^9/μL and the Total bilirubin [3] was 2.40 mg/dL. For the same compound, the Direct bilirubin [4] was 0.29 mg/dL, the Hgb [4] was 9.80 g/dL and the LDH [4] was 1.0 ×ULN. For the same compound, the Reticulocytes [4] was 250 10^9/μL, the Total bilirubin [4] was 1.24 mg/dL and the Direct bilirubin [5] was 0.18 mg/dL. The Hgb [5] was 11.8 g/dL, the LDH [5] was 0.8 ×ULN and the Reticulocytes [5] was 123 10^9/μL. For the same compound, the Total bilirubin [5] was 0.89 mg/dL, the Direct bilirubin [6] was 0.20 mg/dL and the Hgb [6] was 13.3 g/dL. For the same compound, the LDH [6] was 0.9 ×ULN, the Reticulocytes [6] was 162 10^9/μL and the Total bilirubin [6] was 0.81 mg/dL. It also gave a Direct bilirubin [7] of 0.24 mg/dL, a Hgb [7] of 7.60 g/dL and an LDH [7] of 0.8 ×ULN. The Reticulocytes [7] was 141 10^9/μL, the Total bilirubin [7] was 1.03 mg/dL and the Direct bilirubin [8] was 0.16 mg/dL. The Hgb [8] was 9.00 g/dL, the LDH [8] was 0.9 ×ULN and the Reticulocytes [8] was 97.0 10^9/μL. It also gave a Total bilirubin [8] of 0.580 mg/dL, a Direct bilirubin [9] of 0.16 mg/dL and a Hgb [9] of 9.70 g/dL. For the same compound, the LDH [9] was 0.9 ×ULN, the Reticulocytes [9] was 87.0 10^9/μL and the Total bilirubin [9] was 0.580 mg/dL. It also gave a Direct bilirubin [10] of 0.43 mg/dL, a Hgb [10] of 10.4 g/dL and an LDH [10] of 1.1 ×ULN. The Reticulocytes [10] was 191 10^9/μL, the Total bilirubin [10] was 2.26 mg/dL and the Direct bilirubin [11] was 0.15 mg/dL. For the same compound, the Hgb [11] was 11.7 g/dL, the LDH [11] was 1.2 ×ULN and the Reticulocytes [11] was 56.0 10^9/μL. For the same compound, the Total bilirubin [11] was 0.700 mg/dL, the Direct bilirubin [12] was 0.17 mg/dL and the Hgb [12] was 11.5 g/dL. The LDH [12] was 0.9 ×ULN, the Reticulocytes [12] was 56.0 10^9/μL and the Total bilirubin [12] was 0.650 mg/dL. The Direct bilirubin [13] was 0.72 mg/dL, the Hgb [13] was 8.60 g/dL and the LDH [13] was 1.2 ×ULN. The Reticulocytes [13] was 120 10^9/μL, the Total bilirubin [13] was 2.35 mg/dL and the Direct bilirubin [14] was 0.40 mg/dL. The Hgb [14] was 7.60 g/dL, the LDH [14] was 1.3 ×ULN and the Reticulocytes [14] was 179 10^9/μL. The Total bilirubin [14] was 2.22 mg/dL, the Direct bilirubin [15] was 0.60 mg/dL and the Hgb [15] was 9.40 g/dL. For the same compound, the LDH [15] was 1.2 ×ULN, the Reticulocytes [15] was 90.0 10^9/μL and the Total bilirubin [15] was 1.75 mg/dL. For the same compound, the Direct bilirubin [16] was 0.82 mg/dL, the Hgb [16] was 7.20 g/dL and the LDH [16] was 0.9 ×ULN. The Reticulocytes [16] was 405 10^9/μL, the Total bilirubin [16] was 3.93 mg/dL and the Direct bilirubin [17] was 0.49 mg/dL. For the same compound, the Hgb [17] was 9.30 g/dL, the LDH [17] was 0.9 ×ULN and the Reticulocytes [17] was 243 10^9/μL. It also gave a Total bilirubin [17] of 1.50 mg/dL, a Direct bilirubin [18] of 0.78 mg/dL and a Hgb [18] of 10.6 g/dL. For the same compound, the LDH [18] was 0.9 ×ULN, the Reticulocytes [18] was 253 10^9/μL and the Total bilirubin [18] was 2.95 mg/dL. For the same compound, the Direct bilirubin [19] was 0.39 mg/dL, the Hgb [19] was 7.10 g/dL and the LDH [19] was 0.6 ×ULN. For the same compound, the Reticulocytes [19] was 262 10^9/μL, the Total bilirubin [19] was 1.20 mg/dL and the Direct bilirubin [20] was 0.50 mg/dL. The Hgb [20] was 9.40 g/dL, the LDH [20] was 0.5 ×ULN and the Reticulocytes [20] was 200 10^9/μL. It also gave a Total bilirubin [20] of 1.90 mg/dL, a Direct bilirubin [21] of 0.39 mg/dL and a Hgb [21] of 9.10 g/dL. The LDH [21] was 0.9 ×ULN, the Reticulocytes [21] was 239 10^9/μL and the Total bilirubin [21] was 1.25 mg/dL. The Direct bilirubin [22] was 0.78 mg/dL, the Hgb [22] was 7.70 g/dL and the LDH [22] was 1.5 ×ULN. The Reticulocytes [22] was 238 10^9/μL, the Total bilirubin [22] was 2.18 mg/dL and the Direct bilirubin [23] was 0.53 mg/dL. The Hgb [23] was 7.30 g/dL, the LDH [23] was 1.8 ×ULN and the Reticulocytes [23] was 206 10^9/μL. For the same compound, the Total bilirubin [23] was 2.04 mg/dL, the Direct bilirubin [24] was 0.52 mg/dL and the Hgb [24] was 7.50 g/dL. The LDH [24] was 1.4 ×ULN, the Reticulocytes [24] was 169 10^9/μL and the Total bilirubin [24] was 1.57 mg/dL. For the same compound, the Direct bilirubin [25] was 0.23 mg/dL, the Hgb [25] was 7.70 g/dL and the LDH [25] was 0.9 ×ULN. For the same compound, the Reticulocytes [25] was 200 10^9/μL, the Total bilirubin [25] was 0.56 mg/dL and the Direct bilirubin [26] was 0.18 mg/dL. The Hgb [26] was 10.8 g/dL, the LDH [26] was 0.9 ×ULN and the Reticulocytes [26] was 110 10^9/μL. The Total bilirubin [26] was 0.34 mg/dL, the Direct bilirubin [27] was 0.18 mg/dL and the Hgb [27] was 11.5 g/dL. For the same compound, the LDH [27] was 0.9 ×ULN, the Reticulocytes [27] was 96 10^9/μL and the Total bilirubin [27] was 0.32 mg/dL. It also gave a Direct bilirubin [28] of 0.68 mg/dL, a Hgb [28] of 7.80 g/dL and an LDH [28] of 1.3 ×ULN. For the same compound, the Reticulocytes [28] was 258 10^9/μL, the Total bilirubin [28] was 3.24 mg/dL and the Hgb [29] was 10.2 g/dL. For the same compound, the Reticulocytes [29] was 292 10^9/μL, the Direct bilirubin [30] was 0.23 mg/dL and the Hgb [30] was 11.0 g/dL. The LDH [30] was 1.2 ×ULN, the Reticulocytes [30] was 152 10^9/μL and the Total bilirubin [30] was 1.14 mg/dL. For the same compound, the Direct bilirubin [31] was 0.64 mg/dL, the Hgb [31] was 8.40 g/dL and the LDH [31] was 0.9 ×ULN. For the same compound, the Reticulocytes [31] was 188 10^9/μL, the Total bilirubin [31] was 3.76 mg/dL and the Direct bilirubin [32] was 0.39 mg/dL. For the same compound, the Hgb [32] was 9.40 g/dL, the LDH [32] was 1.2 ×ULN and the Reticulocytes [32] was 88.0 10^9/μL. The Total bilirubin [32] was 1.85 mg/dL, the Direct bilirubin [33] was 0.31 mg/dL and the Hgb [33] was 11.5 g/dL. For the same compound, the LDH [33] was 1.1 ×ULN, the Reticulocytes [33] was 69.0 10^9/μL and the Total bilirubin [33] was 1.41 mg/dL. The raise in hemoglobin (addition of danicopan to eculizumab in patients that continued to be anemic) was “over 2 g/dL”, the “Direct bilirubin, mean” value [34] was 0.51 mg/dL and the “LDH, mean” value [34] was 1.06 ×ULN. For the same compound, the “Reticulocytes, mean” value [34] was 219 10^9/μL, the “Total bilirubin, mean” value [34] was 2.17 mg/dL and the “Direct bilirubin, mean” value [35] was 0.37 mg/dL. For the same compound, the “LDH, mean” value [35] was 1.04 ×ULN, the “Reticulocytes, mean” value [35] was 135 10^9/μL and the “Total bilirubin, mean” value [35] was 1.35 mg/dL. The “mean increase in Hgb” value (at 24 Weeks of treatment vs baseline, danicopan added to eculizumab) was 2.4 g/dL, the “mean increase in Hgb” value (danicopan added to background eculizumab) was 2.4 gram and the raise in hemoglobin (patient without transfusion history (Patient A), baseline 5 g/dL, at 24-weeks) was “over 3 g/dL”.
